# Test results: patent publication US7820665B2, “Imidazopyridazine inhibitors of PI3 kinase for cancer treatment” (Amgen Inc., priority 2007, dated 2010)
# Tests used:
# [1] = biological target: T1, PI3Kα (Homo sapiens, UniProt P42336); experiment: In vitro PI3 kinase enzyme assay (PI3K ATPLoss); format: biochemical; details: recombinant p110α/p85, residual ATP by bioluminescence
# T1 construct: Full length p110 subunits of PI3K α, β and δ, N-terminally labeled with polyHis tag; polyHis (N); made in house; host or cells: Sf9 insect cells (baculovirus)
# T1 sequence (P42336 whole entry, species assumed): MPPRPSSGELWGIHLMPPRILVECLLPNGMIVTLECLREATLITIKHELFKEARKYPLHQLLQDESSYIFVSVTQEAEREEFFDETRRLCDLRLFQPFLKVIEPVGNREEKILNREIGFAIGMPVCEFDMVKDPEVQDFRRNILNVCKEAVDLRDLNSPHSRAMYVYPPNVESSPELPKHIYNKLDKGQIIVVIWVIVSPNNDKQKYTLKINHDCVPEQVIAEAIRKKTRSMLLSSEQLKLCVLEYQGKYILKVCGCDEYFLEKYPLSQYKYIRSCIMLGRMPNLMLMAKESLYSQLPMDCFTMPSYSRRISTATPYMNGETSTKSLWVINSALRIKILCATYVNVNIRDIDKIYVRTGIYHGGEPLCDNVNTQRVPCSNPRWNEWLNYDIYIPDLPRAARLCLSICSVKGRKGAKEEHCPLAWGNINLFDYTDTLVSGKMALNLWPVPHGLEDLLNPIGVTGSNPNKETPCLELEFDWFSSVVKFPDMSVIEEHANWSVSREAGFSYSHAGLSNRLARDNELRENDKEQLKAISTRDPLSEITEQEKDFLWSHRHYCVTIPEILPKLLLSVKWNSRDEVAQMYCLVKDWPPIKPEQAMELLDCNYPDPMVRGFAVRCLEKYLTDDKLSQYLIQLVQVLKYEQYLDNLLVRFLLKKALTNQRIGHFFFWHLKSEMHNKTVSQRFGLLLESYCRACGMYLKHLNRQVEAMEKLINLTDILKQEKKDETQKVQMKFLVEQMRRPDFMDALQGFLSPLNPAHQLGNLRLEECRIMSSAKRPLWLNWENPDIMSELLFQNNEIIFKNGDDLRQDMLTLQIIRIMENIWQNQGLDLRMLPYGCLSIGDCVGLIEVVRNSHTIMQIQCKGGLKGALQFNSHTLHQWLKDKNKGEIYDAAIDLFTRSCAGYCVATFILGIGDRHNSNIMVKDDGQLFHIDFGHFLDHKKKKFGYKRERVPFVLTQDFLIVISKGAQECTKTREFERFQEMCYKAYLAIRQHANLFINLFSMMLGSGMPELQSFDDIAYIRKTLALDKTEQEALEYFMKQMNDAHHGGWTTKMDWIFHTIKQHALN
# T1 sequence (P27986 whole entry partner, species assumed): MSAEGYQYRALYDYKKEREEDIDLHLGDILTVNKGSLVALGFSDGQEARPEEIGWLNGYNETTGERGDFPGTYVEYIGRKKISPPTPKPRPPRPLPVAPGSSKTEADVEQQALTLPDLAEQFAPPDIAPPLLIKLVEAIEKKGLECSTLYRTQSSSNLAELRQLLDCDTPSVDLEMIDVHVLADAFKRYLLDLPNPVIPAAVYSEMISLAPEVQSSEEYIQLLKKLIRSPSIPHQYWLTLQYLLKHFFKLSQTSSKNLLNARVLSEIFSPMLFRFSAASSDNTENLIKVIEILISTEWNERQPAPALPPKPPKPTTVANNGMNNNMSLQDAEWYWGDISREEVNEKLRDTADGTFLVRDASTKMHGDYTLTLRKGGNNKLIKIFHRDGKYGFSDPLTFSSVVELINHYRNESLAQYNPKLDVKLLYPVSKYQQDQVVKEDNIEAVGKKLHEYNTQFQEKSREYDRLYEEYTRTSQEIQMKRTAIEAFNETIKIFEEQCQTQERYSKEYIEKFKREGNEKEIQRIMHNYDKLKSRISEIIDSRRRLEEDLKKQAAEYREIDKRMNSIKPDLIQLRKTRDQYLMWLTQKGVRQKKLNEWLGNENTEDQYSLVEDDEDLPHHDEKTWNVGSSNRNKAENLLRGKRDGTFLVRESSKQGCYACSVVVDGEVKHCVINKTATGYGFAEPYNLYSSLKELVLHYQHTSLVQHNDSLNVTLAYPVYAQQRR
# Procedure: Full length p110 subunits of PI3K α, β and δ, N-terminally labeled with polyHis tag, can be co-expressed with p85 with Baculo virus expression vectors in sf9 insect cells. P110/p85 heterodimers can be purified by sequential Ni-NTA, Q-HP, Superdex-100 chromatography. Purified α, β and δ isozymes can be stored at −20° C. in 20 mM Tris, pH 8, 0.2M NaCl, 50% glycerol, 5 mM DTT, 2 mM Na cholate. Truncated PI3Kγ, residues 114-1102, N-terminally labeled with polyHis tag, can be expressed with Baculo virus in Hi5 insect cells. The γ isozyme can be purified by sequential Ni-NTA, Superdex-200, Q-HP chromatography. The γ isozyme can be stored frozen at −80° C. in NaH2PO4, pH 8, 0.2M NaCl, 1% ethylene glycol, 2 mM β-mercaptoethanol.
# PI3K enzyme assays (alpha, beta, delta and gamma) can be performed in 25 μL with the above final concentrations of components in white polyproplyene plates. Phosphatidyl inositol phosphoacceptor, PtdIns(4,5)P2 (e.g. P4508) can be obtained from Echelon Biosciences, Salt Lake City, Utah. The ATPase activity of the alpha and gamma isozymes may not be greatly stimulated by PtdIns(4,5)P2 under these conditions, it can be omitted from the assay of these isozymes. Test compounds can be dissolved in DMSO and diluted with three-fold serial dilutions. The compound in DMSO (1 μL) may be added per test well, and the inhibition relative to reactions containing no compound, with and without enzyme can be determined. After assay incubation at RT, the reaction can be stopped and residual ATP can be determined by addition of an equal volume of a commercial ATP bioluminescence kit (Perkin Elmer EasyLite, Perkin Elmer, Waltham, Mass.) according to the manufacturer's instructions, and detected using an Analyst GT luminometer.
# [2] = test system: phosphorylation of Akt at Serine 473 in U87 MG cells; experiment: pAkt AlphaScreen (U87 Cell); format: cell-based; details: Homo sapiens, U-87 MG, 2 h, 2 h compound, pAkt Ser473 AlphaScreen
# Procedure: The pAkt AlphaScreen® assay (PerkinElmer, Waltham, Mass.) determines whether there is phosphorylation of Akt at Serine 473 by recruitment of a phosphospecific antibody. This assay was performed using U87 MG cells. The U87 growth media consists of MEM (Gibco, Carlsbad, Calif.) supplemented with 10% FBS (Gibco), 1× Non-Essential Amino Acids (Gibco) and 1× Penicillin/Streptomycin/Glutamine (Gibco). The cells were maintained weekly using 0.05% Trypsin (Gibco) and replated in 150 mm TC-Treated Culture Dishes (Corning, Corning, N.Y.).
# The first day of the assay, the adherent cells were trypsinized, media was added to the loose cells and cells were mixed to a homogenous mixture. 0.5 ml of the homogenous mixture was counted on the Beckman Coulter® Vi-CELL™ XR (Fullerton, Calif.). 50 frames of cells were counted and the number of viable cells was determined. The cells were then diluted to 0.25 million cells per ml, and centrifuged at 200 rcf for 5 minutes. The media was removed and the cells were reconstituted in fresh media for plating. The cells were plated at 20 μl per well on the PerkinElmer® Flexprop PLUS in Low Volume 384 Well White Tissue Culture Plates (Corning) with a final cell density of 5K cells per well. The plates were incubated overnight at 37° Celsius, 5% CO2.
# On the second day, the compound plates were prepared, the cells were treated with compound and the pAkt reaction mix was added to the cell lysate. 384 well compound plates were prepared containing 1 μl of compound per well starting at 5 mM and diluted 1:2 across the row, resulting in a 22 well serial dilution. 39 μl of growth media was added to the compound plate in rows 1-22 using the PerkinElmer® FlexDrop PLUS resulting in a DMSO concentration of 2.5%. The cell plates and diluted compound plates were put onto the VELOCITY11™ VPREP™ 384 ST where the compound plate was mixed and 5 μl of serially diluted compound or controls was added to the cell plate. The final concentration of the compounds was 25 μM serially diluted to 11.9 pM in 0.5% DMSO. The cell plates were then incubated with compound for two hours at 37° Celsius, 5% CO2. After two hours, the media in the cell plates was aspirated using the BioTek® ELx405HT plate washer (Winooski, Vt.) removing the majority of media and compound without disturbing the adherent U87 cells. The following assay reagents are components of the SureFire® Akt (Ser 473) Phosphorylation 50K Point Kit (TGR BioSciences, Adelaide, Australia) and an IgG Detection Kit (PerkinElmer, Waltham, Mass.). 5 μl of 1× Lysis Buffer was added to each well using the PerkinElmer® FlexDrop PLUS. The plates were then incubated at room temperature on a shaker for ten minutes. The AlphaScreen® reaction was prepared under low light conditions (subdued or green light) including p-Akt (Ser 473) Reaction Buffer, Dilution Buffer, Activation Buffer, Acceptor Beads and Donor Beads at a ratio of 40:20:10:1:1 respectively. The AlphaScreen® reaction was added to the cell lysate at 6 μl per well using the PerkinElmer® FlexDrop PLUS. The plates were placed in a humid environment to reduce edge effects and incubated overnight at room temperature with restricted air flow in the dark.
# On the final day of the experiment, the plates were read on the PerkinElmer® EnVision™ 2103 Multilable Reader using the standard AlphaScreen® readout. The POC is calculated and the data is analyzed to report the IC50 IP for pAkt at Serine 473.
# [3] = test system: Akt phosphorylation at Ser473 in HCT116 cells; experiment: Cell-based phospho-AKT Ser473 assay (HCT116 Cell), MSD sandwich immunoassay; details: Homo sapiens, HCT-116, 2 h, read-out: HCT116 Cell IC50, HCT116 cells, 2 h compound, IGF-1 stimulation, pAkt Ser473;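 further: IGF-1 added at 100 ng/mL for 15 min after compound treatment, electrochemiluminescent readout of phospho-Akt, DMSO-only wells define maximum signal, IC50 reflects inhibition of phosphorylation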
# Source text: This assay determines the ability of a compound to inhibit the phosphorylation of Serine 472 in Akt using a MSD based sandwich immunoassay (Meso Scale Detection, Meso Scale Discovery (MSD), Gaithersburg, Md.). HCT116 human colon carcinoma cell lines can be grown in McCoy's 5A growth medium (GIBCO, Carlsbad, Calif.) containing 10% FBS (GIBCO, Carlsbad, Calif.) and X1 Penicillin-streptomycin-glutamine (GIBCO, Carlsbad, Calif.). Prior to the assay, cells can be detached from the culture flask with trypsin, and re-suspended in complete media to give a final concentration of 1.6×10^5 cells per mL. Aliquots (100 μl) of the HCT116 cell suspension can be seeded into each well of a 96 well tissue culture plate to give a final density of 16,000 cells per well. Cells can then be incubated overnight at 37° C.
# The following day the cells can be treated with serially diluted test compounds and incubated for 2 hours at 37° C. The culture media on the HCT 116 cells can be replaced with 189 μL McCoys media, supplemented with 0.1% BSA (ICN Biomedicals, Inc., Costa Mesa, Calif.). […] Aliquots (1 μL) of serially-diluted compounds can be transferred to 96 well tissue culture plates containing the HCT 116 cells. […] As a maximum response control, wells can contain 0.5% DMSO in place of compound. The plates can be mixed at 700 rpm for 2 min to ensure even distribution of the test compound and incubated for 2 hours at 37° C. Cells can then be stimulated with insulin-like growth factor 1 (Sigma, St Louis, Mo.) at final concentration of 100 ng/mL for 15 minutes at 37° C. The media can then be removed and the cells treated with 80 μL cell-lysis buffer (MSD) containing a cocktail of protease and phosphatase inhibitors for one hour at 4° C.
# 25 μL Cell lysate can then be transferred to pre-blocked MSD assay plates pre-coated with a capture antibody specific for Akt, and the plates can be incubated for 2 hours at room temperature. The cell lysates can then be removed and plates can then be washed four times with 200 μl per well of Tris wash buffer (500 mM Tris, PH 7.5, 1.5 M NaCl, 0.2% Tween-20). Subsequently cells can be incubated for 1 hour at room temperature with a 25 μL solution containing the detection antibody, anti-phospho Akt (Ser 473) labeled with an electrochemiluminescent compound (Meso Scale Discovery SULPHO-TAG™ label, MSD, Gaithersburg, Md.). The detection antibody can be removed and plates can then be washed four times with 200 μL per well of Tris wash buffer. An aliquot of 150 μL of diluted MSD read buffer can then be applied to each well, and the electrochemiluminescent signal can be measured using a MSD SECTOR™ plate reader (Meso Scale Discovery, Gaithersburg, Md.). This instrument measures the intensity of emitted light to determine a quantitative measure of phosphorylated Akt in each well. The dose-response data obtained with each compound can be analyzed and the IC50 inhibition of Akt phosphorylation at Ser473 can be calculated.
SMILES,IC50 [1],IC50 [2],IC50 [3]
"CC(=O)Nc1cn2nc(-c3ccnc(Sc4ccccc4F)c3)ccc2n1 [Example 4, N-(6-(2-(2-Fluorophenylthio)pyridin-4-yl)imidazo[1,2-b]pyridazin-2-yl)acetamide]",77 nM,–,1140 nM
"CC(=O)Nc1nc2ccc(-c3cnc(Cl)c(NS(=O)(=O)c4ccc(F)cc4)c3)cc2n1-c1ccccn1 [Example 32, N-(6-(6-Chloro-5-(4-fluorophenylsulfonamido)pyridin-3-yl)-1-(pyridin-2-yl)-1H-benzo[d]imidazol-2-yl)acetamide]",49 nM,–,2720 nM
"CC(=O)Nc1cn2nc(-c3cccc(NS(=O)(=O)c4ccc(C)cc4)c3)ccc2n1 [Example 1, N-(6-(3-(4-Methylphenylsulfonamido)phenyl)imidazo[1,2-b]pyridazin-2-yl)acetamide]",55 nM,–,214 nM
"COc1ccc(S(=O)(=O)N(C)c2nccc(-c3ccc4nc(NC(C)=O)cn4c3)n2)cc1 [Example 13, N-(6-(2-(4-Methoxy-N-methylphenylsulfonamido)pyrimidin-4-yl)H-imidazo[1,2-a]pyridin-2-yl)acetamide]",146 nM,–,847 nM
"Nc1nc2ccc(-c3cnc(Cl)c(NS(=O)(=O)c4ccc(F)cc4)c3)cc2n1-c1ccccn1 [Example 31, N-(5-(2-Amino-1-(pyridin-2-yl)-1H-benzo[d]imidazol-6-yl)-2-chloropyridin-3-yl)-4-fluorobenzenesulfonamide]",8 nM,–,868 nM
"CC(=O)Nc1nc2cc(-c3cnc(Cl)c(NS(=O)(=O)c4ccc(F)cc4)c3)ccc2[nH]1 [Example 30, N-(5-(6-Chloro-5-(4-fluorophenylsulfonamido)pyridin-3-yl)-1H-benzo[d]imidazol-2-yl)acetamide]",12 nM,–,1100 nM
"CC(=O)Nc1cn2cc(-c3cncc(NS(=O)(=O)C4CC4)c3)ccc2n1 [Example 16, N-(6-(5-(Cyclopropanesulfonamido)pyridin-3-yl)H-imidazo[1,2-a]pyridin-2-yl)acetamide]",19 nM,–,14400 nM
"CC(=O)Nc1cn2cc(-c3cncc(NS(=O)(=O)c4ccc(F)cc4)c3)ccc2n1 [Example 15, N-(6-(5-(4-Fluorophenylsulfonamido)pyridin-3-yl)H-imidazo[1,2-a]pyridin-2-yl)acetamide]",10 nM,–,975 nM
"CC(=O)Nc1cn2nc(-c3cccc(N(C)S(=O)(=O)c4ccc(C)cc4)c3)ccc2n1 [Example 2, N-(6-(3-(N,4-Dimethylphenylsulfonamido)phenyl)imidazo[1,2-b]pyridazin-2-yl)acetamide]",98 nM,–,462 nM
"COc1ccc(-c2ccc3nc(NC(C)=O)cn3n2)cc1OC [Example 43, N-(6-(3,4-Dimethoxyphenyl)imidazo[1,2-b]pyridazin-2-yl)acetamide]",44 nM,242 nM,–
"CC(=O)Nc1cn2nc(-c3cccc(NS(=O)(=O)c4cccc5ccccc45)c3)ccc2n1 [Example 7, N-(6-(3-(Naphthalene-1-sulfonamido)phenyl)imidazo[1,2-b]pyridazin-2-yl)acetamide]",62 nM,–,456 nM

# Further lines, results first:
IC50 [1],IC50 [2],IC50 [3],SMILES
7 nM,7 nM,3 nM,"CC(=O)Nc1cn2nc(-c3cnc(Cl)c(NS(=O)(=O)c4c(C)cccc4Cl)c3)ccc2n1 [Example 34, N-(6-(6-Chloro-5-(2-chloro-6-methylphenylsulfonamido)pyridin-3-yl)imidazo[1,2-b]pyridazin-2-yl)acetamide]"
60 nM,–,1200 nM,"CSc1cncc(-c2ccc3nc(NC(C)=O)cn3n2)c1 [Example 8, N-(6-(5-(Methylthio)pyridin-3-yl)imidazo[1,2-b]pyridazin-2-yl)acetamide]"
5.7 nM,133 nM,218 nM,"CC(=O)Nc1cn2nc(-c3cnc(Cl)c(NS(C)(=O)=O)c3)ccc2n1 [Example 19, N-(6-(6-Chloro-5-(methylsulfonamido)pyridin-3-yl)imidazo[1,2-b]pyridazin-2-yl)acetamide]"
37 nM,–,29300 nM,"CC(=O)Nc1cn2cc(-c3cncc(NS(C)(=O)=O)c3)ccc2n1 [Example 17, N-(6-(5-(Methylsulfonamido)pyridin-3-yl)H-imidazo[1,2-a]pyridin-2-yl)acetamide]"
104 nM,–,869 nM,"CC(=O)Nc1cn2nc(-c3cncc(S(C)(=O)=O)c3)ccc2n1 [Example 10, N-(6-(5-(Methylsulfonyl)pyridin-3-yl)imidazo[1,2-b]pyridazin-2-yl)acetamide]"
14 nM,115 nM,–,"COc1cc(-c2ccc3nc(NC(C)=O)cn3n2)cnc1OC [Example 20, N-(6-(5,6-Dimethoxypyridin-3-yl)imidazo[1,2-b]pyridazin-2-yl)acetamide]"
15 nM,3200 nM,–,"CC(=O)Nc1nc2ccc(-c3cnc(Cl)c(NS(C)(=O)=O)c3)nn2c1-c1cccc(F)c1 [Example 22, N-(6-(6-Chloro-5-(methylsulfonamido)pyridin-3-yl)-3-(3-fluorophenyl)imidazo[1,2-b]pyridazin-2-yl)acetamide]"
1170 nM,≥ 25000 nM,–,"CS(=O)(=O)Nc1cc(-c2ccc3nc(N)c(-c4ccc(F)c(C(=O)O)c4)n3n2)cnc1Cl [Example 25, 5-(2-Amino-6-(6-chloro-5-(methylsulfonamido)pyridin-3-yl)imidazo[1,2-b]pyridazin-3-yl)-2-fluorobenzoic acid]"
6 nM,–,213 nM,"CC(=O)Nc1cn2nc(-c3cncc(NS(=O)(=O)c4ccc(F)cc4)c3)ccc2n1 [Example 11, N-(6-(5-(4-Fluorophenylsulfonamido)pyridin-3-yl)imidazo[1,2-b]pyridazin-2-yl)acetamide]"
7 nM,–,244 nM,"CNC(C)c1ccc(S(=O)(=O)Nc2cc(-c3ccc4nc(NC(C)=O)cn4n3)cnc2Cl)cc1 (racemic) [Example 37, N-(6-(6-chloro-5-(4-(1-(methylamino)ethyl)phenylsulfonamido)pyridin-3-yl)imidazo[1,2-b]pyridazin-2-yl)acetamide]"
